Assay results reported in PubChem BioAssay (NCI).
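Assay format: 96-well plates, 48-hour exposure. The concentration for full growth arrest is given as TGI.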

Tests used:
Experiment in all cases: NCI tumour cell line growth inhibition, 48 h
HCC-2998 colon = test system: HCC-2998 colon
TK-10 renal = test system: TK-10 renal
UACC-257 melanoma = test system: UACC-257 melanoma
SNB-75 CNS = test system: SNB-75 CNS
OVCAR-4 ovarian = test system: OVCAR-4 ovarian
SK-OV-3 ovarian = test system: SK-OV-3 ovarian
MALME-3M melanoma = test system: MALME-3M melanoma
SF-295 CNS = test system: SF-295 CNS
M14 melanoma = test system: M14 melanoma
SW-620 colon = test system: SW-620 colon
ACHN renal = test system: ACHN renal
HOP-92 NSCLC = test system: HOP-92 NSCLC
NCI-H226 lung = test system: NCI-H226 lung
EKVX NSCLC = test system: EKVX NSCLC
SR leukemia = test system: SR leukemia
CCRF-CEM leukemia = test system: CCRF-CEM leukemia
IGROV1 ovarian = test system: IGROV1 ovarian
LOX IMVI melanoma = test system: LOX IMVI melanoma
CAKI-1 renal = test system: CAKI-1 renal
SN12C renal = test system: SN12C renal
NCI-H23 lung = test system: NCI-H23 lung
NCI-H460 lung = test system: NCI-H460 lung
KM12 colon = test system: KM12 colon
T-47D breast = test system: T-47D breast
RXF 393 renal = test system: RXF 393 renal
MOLT-4 leukemia = test system: MOLT-4 leukemia
COLO 205 colon = test system: COLO 205 colon
MDA-N = test system: MDA-N
A549 NSCLC = test system: A549 NSCLC
SK-MEL-2 melanoma = test system: SK-MEL-2 melanoma
MDA-MB-435 = test system: MDA-MB-435
HCT-116 colon = test system: HCT-116 colon
NCI/ADR-RES ovarian = test system: NCI/ADR-RES ovarian
SK-MEL-28 melanoma = test system: SK-MEL-28 melanoma
MCF7 breast = test system: MCF7 breast
PC-3 prostate = test system: PC-3 prostate
HS 578T breast = test system: HS 578T breast
A498 renal = test system: A498 renal
OVCAR-8 ovarian = test system: OVCAR-8 ovarian
HL-60(TB) leukemia = test system: HL-60(TB) leukemia
SF-268 CNS = test system: SF-268 CNS
SNB-19 CNS = test system: SNB-19 CNS
BT-549 breast = test system: BT-549 breast
SF-539 CNS = test system: SF-539 CNS
DU-145 prostate = test system: DU-145 prostate
MDA-MB-231 breast = test system: MDA-MB-231 breast
NCI-H522 lung = test system: NCI-H522 lung
OVCAR-5 ovarian = test system: OVCAR-5 ovarian
UACC-62 melanoma = test system: UACC-62 melanoma
HT29 colon = test system: HT29 colon
SK-MEL-5 melanoma = test system: SK-MEL-5 melanoma
OVCAR-3 ovarian = test system: OVCAR-3 ovarian
RPMI-8226 leukemia = test system: RPMI-8226 leukemia
K-562 leukemia = test system: K-562 leukemia
HOP-62 NSCLC = test system: HOP-62 NSCLC
786-0 renal = test system: 786-0 renal
UO-31 renal = test system: UO-31 renal
HCT-15 colon = test system: HCT-15 colon
U251 CNS = test system: U251 CNS

For `CCC/C=C/C=C/C(=O)OC1C(C)C2(O)C3C=C(C)C(=O)C3CC(COC(C)=O)=CC2C2C(C)(C)C12OC(=O)C(C)C` (configuration not stated), the TGI (HCC-2998 colon) was 14.7 µM, the TGI (TK-10 renal) was 47.1 µM and the TGI (UACC-257 melanoma) was 31.8 µM. It also gave a TGI (SNB-75 CNS) of 36.1 µM, a TGI (OVCAR-4 ovarian) of 57.6 µM and a TGI (SK-OV-3 ovarian) greater than 100 µM. The TGI (MALME-3M melanoma) was 26.5 µM, the TGI (SF-295 CNS) was 22.1 µM and the TGI (M14 melanoma) was 27.7 µM. It also gave a TGI (SW-620 colon) of 20.4 µM, a TGI (ACHN renal) of 39.3 µM and a TGI (HOP-92 NSCLC) of 27.2 µM. For the same molecule, the TGI (NCI-H226 lung) was 42.1 µM, the TGI (EKVX NSCLC) was 42.5 µM and the TGI (SR leukemia) was 35.8 µM. For the same molecule, the TGI (CCRF-CEM leukemia) was 19.1 µM, the TGI (IGROV1 ovarian) was 33.1 µM and the TGI (LOX IMVI melanoma) was 34.8 µM. For the same molecule, the TGI (CAKI-1 renal) was 33.9 µM, the TGI (SN12C renal) was 23.5 µM and the TGI (NCI-H23 lung) was 26.9 µM. For the same molecule, the TGI (NCI-H460 lung) was greater than 83.7 µM, the TGI (KM12 colon) was 32 µM and the TGI (T-47D breast) was 35.4 µM. The TGI (RXF 393 renal) was 33.6 µM, the TGI (MOLT-4 leukemia) was 16.2 µM and the TGI (COLO 205 colon) was 9.18 µM. For the same molecule, the TGI (MDA-N) was 20.1 µM, the TGI (A549 NSCLC) was greater than 100 µM and the TGI (SK-MEL-2 melanoma) was 35.2 µM. It also gave a TGI (MDA-MB-435) of 18.3 µM, a TGI (HCT-116 colon) of 26.8 µM and a TGI (NCI/ADR-RES ovarian) of 47.3 µM. The TGI (SK-MEL-28 melanoma) was 26.1 µM, the TGI (MCF7 breast) was 32 µM and the TGI (PC-3 prostate) was 27.3 µM. It also gave a TGI (HS 578T breast) of 55.4 µM, a TGI (A498 renal) of 44.9 µM and a TGI (OVCAR-8 ovarian) of 55.8 µM. The TGI (HL-60(TB) leukemia) was greater than 48.3 µM, the TGI (SF-268 CNS) was 28.4 µM and the TGI (SNB-19 CNS) was 52.6 µM. The TGI (BT-549 breast) was 35.1 µM, the TGI (SF-539 CNS) was 25 µM and the TGI (DU-145 prostate) was greater than 100 µM. The TGI (MDA-MB-231 breast) was 20.2 µM, the TGI (NCI-H522 lung) was 26.8 µM and the TGI (OVCAR-5 ovarian) was 47.9 µM. It also gave a TGI (UACC-62 melanoma) of 16.3 µM, a TGI (HT29 colon) of 25 µM and a TGI (SK-MEL-5 melanoma) of 19.2 µM. The TGI (OVCAR-3 ovarian) was 32.8 µM, the TGI (RPMI-8226 leukemia) was 52.5 µM and the TGI (K-562 leukemia) was greater than 68.6 µM. The TGI (HOP-62 NSCLC) was 0.0586 µM, the TGI (786-0 renal) was 23.1 µM and the TGI (UO-31 renal) was 29.4 µM.

`Cc1ccc(/C=N/Nc2ccccn2)s1` was tested, and the TGI (HCC-2998 colon) was greater than 100 µM, the TGI (TK-10 renal) was greater than 31.6 µM and the TGI (UACC-257 melanoma) was greater than 100 µM. It also gave a TGI (SNB-75 CNS) greater than 100 µM, a TGI (OVCAR-4 ovarian) greater than 100 µM and a TGI (SK-OV-3 ovarian) greater than 100 µM. The TGI (MALME-3M melanoma) was greater than 100 µM, the TGI (SF-295 CNS) was greater than 100 µM and the TGI (M14 melanoma) was greater than 100 µM. For the same molecule, the TGI (SW-620 colon) was greater than 100 µM, the TGI (ACHN renal) was greater than 100 µM and the TGI (HOP-92 NSCLC) was greater than 100 µM. The TGI (NCI-H226 lung) was greater than 100 µM, the TGI (EKVX NSCLC) was greater than 100 µM and the TGI (SR leukemia) was greater than 100 µM. For the same molecule, the TGI (CCRF-CEM leukemia) was greater than 100 µM, the TGI (IGROV1 ovarian) was greater than 100 µM and the TGI (LOX IMVI melanoma) was greater than 100 µM. For the same molecule, the TGI (CAKI-1 renal) was greater than 100 µM, the TGI (SN12C renal) was greater than 100 µM and the TGI (NCI-H23 lung) was greater than 100 µM. For the same molecule, the TGI (NCI-H460 lung) was greater than 100 µM, the TGI (KM12 colon) was greater than 100 µM and the TGI (T-47D breast) was greater than 100 µM. For the same molecule, the TGI (RXF 393 renal) was greater than 100 µM, the TGI (MOLT-4 leukemia) was greater than 100 µM and the TGI (COLO 205 colon) was greater than 100 µM. It also gave a TGI (MDA-N) greater than 100 µM, a TGI (A549 NSCLC) greater than 100 µM and a TGI (HCT-15 colon) greater than 100 µM. It also gave a TGI (SK-MEL-2 melanoma) greater than 100 µM, a TGI (MDA-MB-435) greater than 100 µM and a TGI (HCT-116 colon) greater than 100 µM. For the same molecule, the TGI (NCI/ADR-RES ovarian) was greater than 100 µM, the TGI (SK-MEL-28 melanoma) was greater than 100 µM and the TGI (MCF7 breast) was greater than 100 µM. It also gave a TGI (PC-3 prostate) greater than 100 µM, a TGI (HS 578T breast) greater than 100 µM and a TGI (A498 renal) greater than 100 µM. For the same molecule, the TGI (OVCAR-8 ovarian) was greater than 100 µM, the TGI (HL-60(TB) leukemia) was greater than 100 µM and the TGI (U251 CNS) was greater than 100 µM. The TGI (SF-268 CNS) was greater than 100 µM, the TGI (SNB-19 CNS) was greater than 100 µM and the TGI (BT-549 breast) was greater than 100 µM. The TGI (SF-539 CNS) was greater than 100 µM, the TGI (DU-145 prostate) was greater than 100 µM and the TGI (MDA-MB-231 breast) was greater than 100 µM. The TGI (NCI-H522 lung) was greater than 100 µM, the TGI (OVCAR-5 ovarian) was greater than 100 µM and the TGI (UACC-62 melanoma) was greater than 100 µM. The TGI (HT29 colon) was greater than 100 µM, the TGI (SK-MEL-5 melanoma) was greater than 100 µM and the TGI (OVCAR-3 ovarian) was greater than 100 µM. It also gave a TGI (RPMI-8226 leukemia) greater than 100 µM, a TGI (HOP-62 NSCLC) greater than 100 µM and a TGI (786-0 renal) greater than 100 µM. For the same molecule, the TGI (UO-31 renal) was greater than 100 µM.

With `CCOC(=O)c1nc2cc(C(F)(F)F)ccc2nc1Nc1cc(OC)c(OC)c(OC)c1` the TGI (HCC-2998 colon) was greater than 100 µM, the TGI (TK-10 renal) was greater than 100 µM and the TGI (UACC-257 melanoma) was greater than 100 µM. It also gave a TGI (SNB-75 CNS) greater than 100 µM, a TGI (SK-OV-3 ovarian) greater than 100 µM and a TGI (MALME-3M melanoma) greater than 100 µM. The TGI (SF-295 CNS) was greater than 100 µM, the TGI (M14 melanoma) was greater than 100 µM and the TGI (SW-620 colon) was greater than 100 µM. It also gave a TGI (ACHN renal) greater than 100 µM, a TGI (HOP-92 NSCLC) greater than 100 µM and a TGI (NCI-H226 lung) greater than 100 µM. The TGI (EKVX NSCLC) was greater than 100 µM, the TGI (SR leukemia) was greater than 100 µM and the TGI (CCRF-CEM leukemia) was greater than 100 µM. It also gave a TGI (IGROV1 ovarian) greater than 100 µM, a TGI (LOX IMVI melanoma) greater than 100 µM and a TGI (CAKI-1 renal) greater than 100 µM. For the same molecule, the TGI (SN12C renal) was greater than 100 µM, the TGI (NCI-H23 lung) was greater than 100 µM and the TGI (NCI-H460 lung) was greater than 100 µM. It also gave a TGI (KM12 colon) greater than 100 µM, a TGI (T-47D breast) greater than 100 µM and a TGI (RXF 393 renal) greater than 100 µM. For the same molecule, the TGI (MOLT-4 leukemia) was greater than 100 µM, the TGI (COLO 205 colon) was greater than 100 µM and the TGI (MDA-N) was greater than 100 µM. It also gave a TGI (A549 NSCLC) greater than 100 µM, a TGI (HCT-15 colon) greater than 100 µM and a TGI (MDA-MB-435) greater than 100 µM. For the same molecule, the TGI (HCT-116 colon) was greater than 100 µM, the TGI (NCI/ADR-RES ovarian) was greater than 100 µM and the TGI (SK-MEL-28 melanoma) was greater than 100 µM. It also gave a TGI (MCF7 breast) greater than 100 µM, a TGI (PC-3 prostate) greater than 100 µM and a TGI (HS 578T breast) greater than 100 µM. The TGI (A498 renal) was greater than 100 µM, the TGI (OVCAR-8 ovarian) was greater than 100 µM and the TGI (HL-60(TB) leukemia) was greater than 100 µM. It also gave a TGI (U251 CNS) greater than 100 µM, a TGI (SF-268 CNS) greater than 100 µM and a TGI (SNB-19 CNS) greater than 100 µM. For the same molecule, the TGI (BT-549 breast) was greater than 100 µM, the TGI (SF-539 CNS) was greater than 100 µM and the TGI (DU-145 prostate) was greater than 100 µM. It also gave a TGI (MDA-MB-231 breast) greater than 100 µM, a TGI (NCI-H522 lung) greater than 100 µM and a TGI (OVCAR-5 ovarian) greater than 100 µM. For the same molecule, the TGI (UACC-62 melanoma) was greater than 100 µM, the TGI (HT29 colon) was greater than 100 µM and the TGI (SK-MEL-5 melanoma) was greater than 100 µM. It also gave a TGI (OVCAR-3 ovarian) greater than 100 µM, a TGI (RPMI-8226 leukemia) greater than 100 µM and a TGI (K-562 leukemia) greater than 100 µM. For the same molecule, the TGI (HOP-62 NSCLC) was greater than 100 µM, the TGI (786-0 renal) was greater than 100 µM and the TGI (UO-31 renal) was greater than 100 µM.
